{
  "source": "patent US7157256B2",
  "about": "“Method for producing para-hydroxystyrene and other multifunctional aromatic compounds using two-phase extractive fermentation” (E. I. du Pont de Nemours and Company, priority 2003, dated 2007)",
  "key": {"[1]": {"system": "E. coli TY1 (DGL430)", "assay": "Toxicity testing of organic solvents toward E. coli using agar cultures", "assay_type": "cell-based", "conditions": "for % CFU 1 Sample 2 / % CFU Sample 1 / % CFU Sample 3: 5 mL solvent on inoculated LB agar plate, 30° C., CFU as percentage of control plates; for toxicity to E. coli in words: agar plate study", "procedure": "This study was done using E. coli TY1 (DGL430), as described in Example 1. A stock culture of this strain was prepared in 50% glycerol and stored at −20° C. This stock culture (10 μL) was used to inoculate a 14 mL Falcon™ tube (BD Biosciences, Bedford, Mass.) containing 5 mL of LB medium, consisting of Bacto-tryptone (10 g/L), Bacto-yeast extract (5 g/L), and NaCL (10 g/L) adjusted to pH 7.5 with NaOH, and supplemented with tetracycline (10 μg/mL). This culture was incubated at 34° C. and 250 rpm overnight in an incubator shaker until an OD600 of between 1.0 and 2.0 was obtained. Dilutions of this culture were spread onto LB agar plates. The appropriate dilution was determined by experimentation to obtain between 100 to 200 colonies per plate. The solvents (5 mL) were filtered through a 0.2 μm filter onto the inoculated agar plates. All the solvents were tested in triplicate.\nThe plates were incubated overnight at 30° C. in a vented incubator located in a chemical fume hood. The colonies formed were counted after 24 and 48 h. The colony forming units (CFUs) obtained with each solvent were compared to those of the control plates and plotted in FIG. 1 as a percentage versus the log P value for the solvent (P values obtained from Hansch et al., Exploring QSAR: Hydrophobic, Electronic and Steric Constants, American Chemical Society, Washington, D.C., 1995). […] The error bars in the figure represent the range of the data. Cell growth on the agar medium was characterized by the presence of both distinct and non-distinct colony formations, which affected the precision of the colony counts. In the presence of some of the solvents tested, growth continued between 24 and 48 h, while with other solvents, no further growth was observed after 24 h."}, "[2]": {"assay": "Extraction of CA into organic phase, two-phase flask fermentation", "assay_type": "physicochemical", "procedure": "The strain used in this study was E. coli WWQ51.1, as described in Example 3. The conditions were similar to those described in Example 3. Eight test cultures were inoculated; six contained 20 mL of 2-undecanone, the other two contained 20 mL of 1-undecanol. A 10% w/v solution of pHS in propylene glycol (0.5 mL), obtained from Sigma-Aldrich, Milwaukee, Wis., was added to two of the cultures containing 2-undecanone, as specified in Table 7.\nThe cultures were incubated in 250 mL baffled flasks at 35° C. and 300 rpm for 24 h in an incubator shaker. After this time, a sample of the aqueous phase was withdrawn and the pH, OD550, and the concentration of the fermentation products were measured, as described supra. The organic phase was also sampled and the concentration of CA and pHS were determined using HPLC, as described supra.\nIn this study, the pH decreased to low values and a significant amount of CA was extracted into both organic solvents tested. The amount of pHS produced was low, probably because of its poor stability at low pH. As shown by the data in Table 9, the amount of CA extracted into the organic phase was very dependent on the pH of the medium. This pH dependence results because the fully protonated species is the form extracted into the organic phase. The ionized acid form is very water-soluble and is not extracted into the organic phase. Therefore, the extractive fermentation of acidic compounds such as CA and pHCA is favored at low pH, where the acid exists primarily in the unionized form."}, "[3]": {"conditions": "P values obtained from Hansch et al. 1995; cited from earlier work"}, "[4]": {"system": "E. coli strain BNT511", "assay": "Effect of organic solvents on the growth of E. coli, shake flasks", "assay_type": "cell-based", "conditions": "for OD 550: 10 mL solvent in 30 mL medium", "text": "E. coli strain BNT511 was used in this study. This strain is a tyrosine overproducing strain derived from E. coli strain NST 74 (ATCC No. 31884), which was obtained from the American Type Culture Collection (ATCC) (Manassas, Va.). Strain BNT511 is deposited with the American Type Culture Collection under the terms of the Budapest Treaty on the International Recognition of the Deposit of Microorganisms for the Purposes of Patent Procedure and has been assigned a depository designation of PTA-4314. E. coli strain BNT511 was obtained as follows. A culture of E. coli strain NST 74 was grown overnight at 37° C. in three milliliters of M9 medium, prepared as follows. A solution of M9 salts buffer consisting of KH2PO4 (3 g/L), Na2HPO4 (6 g/L), NaCl (0.5 g/L), and NH4Cl (1 g/L), was prepared and the pH was adjusted to 7.4. This M9 salts buffer was autoclaved and then the following solutions, each sterilized separately by filtration (glucose) or autoclaving, were added to give the concentrations given in parentheses MgSO4 (0.24 g/L), glucose (0.2%), CaCl2 (0.011 g/L), and yeast extract (1 g/L). After growth, the culture was diluted by a factor of 10^3 to 10^6 in M9 salts buffer. Then, 100 μL of each dilution was plated on M9+1% glucose agar containing […] of 3-fluorotyrosine and the plates were incubated at 37° C. After 18 h, growth was observed only on the plate not containing 3-fluorotyrosine. Plates containing 3-fluorotyrosine were incubated an additional 24 h, after which time, several isolates were identified. One NST 74-derived isolate was obtained from each of the 150 and 450 mg/mL 3-fluorotyrosine plates. Individual isolates were propagated on M9+1% glucose agar containing 0, 50, 150, or 250 mg/mL 3-fluorotyrosine. One of these two isolates was designated as BNT511.\nE. coli strain BNT511 was grown in a medium containing KH2PO4 (0.15 g/L), Na2HPO4 (0.35 g/L), (NH4)2 SO4 (3 g/L), MgSO4.7H2O (0.3 g/L), yeast extract (0.5 g/L), MOPS (15.6 g/L), and glucose (10 g/L), adjusted to pH 6.8. A seed culture, taken from an active culture that grew in a fermentor and was diluted to 0.3 OD at 550 nm, was used to inoculate 30 mL of culture medium in 250 mL baffled flasks. Ten milliliters of the solvent to be tested, either 1-undecanol (98%, obtained from Aldrich) or 2-undecanone (98%, obtained from Aldrich), was added to the flask and the flasks were incubated at 35° C. and 300 rpm for 22 h in an incubator shaker. A flask without an organic solvent added served as the control. This experiment was run in duplicate. Samples of the aqueous culture media were removed at various times and the pH and the OD550 were measured. As shown by the results given in Table 2, the presence of the organic solvents tested had no significant effect on the growth of E. coli. However, the results obtained with 2-undecanone in these studies were not consistent. […] We believe that this variability was caused by variations in the purity of this solvent."}, "[5]": {"conditions": "2 h, 35° C., 300 rpm, duplicate flasks"}},
  "note": "Values joined by “and” are separate entries in the source; they are usually repeats but may differ in a detail not shown here. Equal values may be shown once. “Also recorded” adds a separate entry of the source.",
  "data": [
    {"smiles": "CCCOC(=O)c1ccccc1", "note": "[Propyl benzoate]", "values": [
      {"measurement": "% CFU 1 Sample 2", "setting": "[1]", "result": 26, "unit": "%"},
      {"measurement": "% CFU Sample 1", "setting": "[1]", "result": 9, "unit": "%"},
      {"measurement": "% CFU Sample 3", "setting": "[1]", "result": 0.9, "unit": "%"}
    ]},
    {"smiles": "O=C(O)C=Cc1ccccc1", "note": "[CA, cinnamic acid]", "values": [
      {"measurement": "CA Org/CA Aq", "setting": "[2]; Flask 1, 2-undecanone 20 mL/flask, pH 5.38, 24 h", "result": 3.55},
      {"measurement": "CA Org/CA Aq", "setting": "[2]; Flask 2, 2-undecanone, pH 4.5", "result": 17.00},
      {"measurement": "CA Org/CA Aq", "setting": "[2]; Flask 3, 2-undecanone, pH 5.5", "result": 1.43},
      {"measurement": "CA Org/CA Aq", "setting": "[2]; Flask 4, 2-undecanone, pH 5.4", "result": 2.54},
      {"measurement": "CA Org/CA Aq", "setting": "[2]; Flask 5, 2-undecanone, pH 4.8", "result": 8.08},
      {"measurement": "CA Org/CA Aq", "setting": "[2]; Flask 6, 2-undecanone, pH 5.7", "result": 1.10},
      {"measurement": "CA Org/CA Aq", "setting": "[2]; Flask 7, 1-undecanol, pH 5.7", "result": 2.10},
      {"measurement": "CA Org/CA Aq", "setting": "[2]; Flask 8, 1-undecanol, pH 5.71", "result": 2.15}
    ]},
    {"smiles": "c1ccc(COCc2ccccc2)cc1", "note": "[Dibenzyl ether]", "values": [
      {"measurement": "Log P", "setting": "[3]", "result": 3.1},
      {"measurement": "% CFU 1 Sample 2", "setting": "[1]", "result": 5, "unit": "%"},
      {"measurement": "% CFU Sample 1", "setting": "[1]", "result": 1.5, "unit": "%"},
      {"measurement": "% CFU Sample 3", "setting": "[1]", "result": 0, "unit": "%"}
    ]},
    {"smiles": "CCCCCCCCCCCO", "note": "[1-undecanol]", "values": [
      {"measurement": "OD 550", "setting": "[4]; [5]", "result": "1.428 and 1.456"},
      {"measurement": "OD 550", "setting": "[4]; 4.2 h", "result": "1.96 and 2.14"},
      {"measurement": "OD 550", "setting": "[4]; 6 h", "result": "6.02 and 6.7"},
      {"measurement": "OD 550", "setting": "[4]; 22 h", "result": "19.1 and 15.7"}
    ]},
    {"smiles": "CCCCCCCCCC(=O)OC", "note": "[Methyl decanoate]", "values": [
      {"measurement": "Log P", "setting": "[3]", "result": 4.41},
      {"measurement": "% CFU 1 Sample 2", "setting": "[1]", "result": 109, "unit": "%"},
      {"measurement": "% CFU Sample 1", "setting": "[1]", "result": 73, "unit": "%"},
      {"measurement": "% CFU Sample 3", "setting": "[1]", "result": 44, "unit": "%"},
      {"measurement": "toxicity to E. coli in words", "setting": "[1]", "result": "relatively nontoxic to E. coli"}
    ]},
    {"smiles": "CCCCCCCCCC(C)=O", "note": "[2-undecanone]", "values": [
      {"measurement": "Log P", "setting": "[3]", "result": 3.91},
      {"measurement": "% CFU 1 Sample 2", "setting": "[1]", "result": 11, "unit": "%"},
      {"measurement": "% CFU Sample 1", "setting": "[1]", "result": 11, "unit": "%"},
      {"measurement": "% CFU Sample 3", "setting": "[1]", "result": 11, "unit": "%"},
      {"measurement": "toxicity to E. coli in words", "setting": "[1]", "result": "significantly inhibit growth"},
      {"measurement": "growth inhibition / toxicity to E. coli of some lots", "setting": "[4]; 2-undecanone from some suppliers and lots, ascribed to impurities", "result": "found to inhibit growth; also recorded: toxic to E. coli due to impurities"},
      {"measurement": "OD 550", "setting": "[4]; [5]", "result": 1.004},
      {"measurement": "OD 550", "setting": "[4]; 4.2 h", "result": 1.88},
      {"measurement": "OD 550", "setting": "[4]; 6 h", "result": "6.3 and 6.28"},
      {"measurement": "OD 550", "setting": "[4]; 22 h", "result": "15.2 and 12.3"}
    ]},
    {"smiles": "CCCCC(=O)c1ccccc1", "note": "[1-Phenyl-1-pentanone]", "values": [
      {"measurement": "Log P", "setting": "[3]", "result": 3.33},
      {"measurement": "% CFU 1 Sample 2", "setting": "[1]", "result": 62, "unit": "%"},
      {"measurement": "% CFU Sample 1", "setting": "[1]", "result": 33, "unit": "%"},
      {"measurement": "% CFU Sample 3", "setting": "[1]", "result": 0, "unit": "%"}
    ]},
    {"smiles": "CCCCCCCCC(C)=O", "note": "[2-Decanone]", "values": [
      {"measurement": "Log P", "setting": "[3]", "result": 3.39},
      {"measurement": "% CFU 1 Sample 2", "setting": "[1]", "result": 0, "unit": "%"},
      {"measurement": "% CFU Sample 1", "setting": "[1]", "result": 0, "unit": "%"},
      {"measurement": "% CFU Sample 3", "setting": "[1]", "result": 0, "unit": "%"}
    ]},
    {"smiles": "CC(C)CCOCCC(C)C", "note": "[Diisopentyl ether]", "values": [
      {"measurement": "Log P", "setting": "[3]", "result": 3.96},
      {"measurement": "% CFU 1 Sample 2", "setting": "[1]", "result": 39, "unit": "%"},
      {"measurement": "% CFU Sample 1", "setting": "[1]", "result": 13, "unit": "%"},
      {"measurement": "% CFU Sample 3", "setting": "[1]", "result": 0, "unit": "%"}
    ]},
    {"smiles": "CCCCCCCCCCCC(C)=O", "note": "[2-Tridecanone]", "values": [
      {"measurement": "Log P", "setting": "[3]", "result": 4.95},
      {"measurement": "% CFU 1 Sample 2", "setting": "[1]", "result": 115, "unit": "%"},
      {"measurement": "% CFU Sample 1", "setting": "[1]", "result": 100, "unit": "%"},
      {"measurement": "% CFU Sample 3", "setting": "[1]", "result": 87, "unit": "%"},
      {"measurement": "toxicity to E. coli in words", "setting": "[1]", "result": "relatively nontoxic to E. coli"}
    ]}
  ]
}
